Data set [1] is described as follows: DPPH free radical scavenging (antioxidant activity). The settings on record: 100 μg/mL compound in 3 mL 0.004% DPPH, 520 nm after 30 min; mean of three replicates ±SD. Here is the method:
The antioxidant activity was measured based on the scavenging activity of the stable DPPH free radical. 100 μg/mL of the twenty-five sulindac derivative compounds were added to 3 mL 0.004% DPPH solution. Methanol was added to 3 mL 0.004% DPPH solution for the control sample. Absorbance was determined at 520 nm after 30 min. Butylated hydroxytoluene (BHT) was used as a reference drug. The percent inhibition was calculated by the equation:
[formula] where At is the absorbance of the compound and A0 is the absorbance of the control.
(DPPH is a stable violet radical that fades when it is reduced.)

Results on 25 molecules are retold here after patent US10329249B1, “Sulindac derivatives” (KING SAUD UNIVERSITY, priority 2018, dated 2019).

SMILES strings stand for the structures.

As to `CC1=C(CC(=O)N/N=C\c2ccc([N+](=O)[O-])cc2)c2cc(F)ccc2/C1=C\c1ccc([S+](C)[O-])cc1` (stereo not drawn) [Compound 2, N′-(4-nitrobenzylidene)-2-((1Z)-1-(4-(methylsulfinyl)benzylidene)-5-fluoro-2-methyl-1H-inden-3-yl)acetohydrazide], the melting point is 220 to 222 °C. Also, the “Scavenging Effect” value in data set [1] amounted to 19.26 ± 5.32%.

Regarding `COc1ccc(/C=N\NC(=O)CC2=C(C)/C(=C/c3ccc([S+](C)[O-])cc3)c3ccc(F)cc32)c(OC)c1` (stereo not drawn) [Compound 13, N′-(2,4-dimethoxybenzylidene)-2-((1Z)-1-(4-(methylsulfinyl)benzylidene)-5-fluoro-2-methyl-1H-inden-3-yl)acetohydrazide], the melting point was 185 to 187 °C. The “Scavenging Effect” value in data set [1] was 23.07 ± 6.95%.

On to `COc1cccc(/C=N\NC(=O)CC2=C(C)/C(=C/c3ccc([S+](C)[O-])cc3)c3ccc(F)cc32)c1` (stereo not drawn) [Compound 6], for which the “Scavenging Effect” value in data set [1] was 71.03 ± 5.31%.

With `CC1=C(CC(=O)N/N=C\c2ccc(O)c(O)c2O)c2cc(F)ccc2/C1=C\c1ccc([S+](C)[O-])cc1` (stereo not drawn) [Compound 25, N′-(2,3,4-trihydroxybenzylidene)-2-((1Z)-1-(4-(methylsulfinyl)benzylidene)-5-fluoro-2-methyl-1H-inden-3-yl)acetohydrazide], the melting point lay within 195 to 197 °C. In addition, the “Scavenging Effect” value in data set [1] worked out at 30.06 ± 3.30%.

Regarding `COc1ccccc1/C=N\NC(=O)CC1=C(C)/C(=C/c2ccc([S+](C)[O-])cc2)c2ccc(F)cc21` (stereo not drawn) [Compound 12, N′-(2-methoxybenzylidene)-2-((1Z)-1-(4-(methylsulfinyl)benzylidene)-5-fluoro-2-methyl-1H-inden-3-yl) acetohydrazide], in data set [1], the “Scavenging Effect” value worked out at 39.73 ± 15.65%.

In the case of `COc1cc(/C=N\NC(=O)CC2=C(C)/C(=C/c3ccc([S+](C)[O-])cc3)c3ccc(F)cc32)cc(OC)c1O` (stereo not drawn) [Compound 19, N′-(3,5-dimethoxy-4-hydroxybenzylidene)-2-((1Z)-1-(4-(methylsulfinyl)benzylidene)-5-fluoro-2-methyl-1H-inden-3-yl)acetohydrazide], the melting point was in the range of 218 to 220 °C.

`CC1=C(CC(=O)N/N=C\c2cccc(O)c2)c2cc(F)ccc2/C1=C\c1ccc([S+](C)[O-])cc1` (stereo not drawn) [Compound 5]: the “Scavenging Effect” value in data set [1] is listed as 42.20 ± 13.20%.

Regarding `CC1=C(CC(=O)N/N=C\c2ccc(O)cc2)c2cc(F)ccc2/C1=C\c1ccc([S+](C)[O-])cc1` (stereo not drawn) [Compound 11, N′-(4-hydroxybenzylidene)-2-((1Z)-1-(4-(methylsulfinyl)benzylidene)-5-fluoro-2-methyl-1H-inden-3-yl)acetohydrazide], the “Scavenging Effect” value in data set [1] worked out at 45.06 ± 22.57%.

As to `CC1=C(CC(=O)N/N=C\c2cc(O)ccc2O)c2cc(F)ccc2/C1=C\c1ccc([S+](C)[O-])cc1` (stereo not drawn) [Compound 21, N′-(2,5-dihydroxybenzylidene)-2-((1Z)-1-(4-(methylsulfinyl)benzylidene)-5-fluoro-2-methyl-1H-inden-3-yl)acetohydrazide], the melting point is 180 to 182 °C. The “Scavenging Effect” value in data set [1] amounted to 38.10 ± 10.92%.

In the case of `COc1cccc(/C=N\NC(=O)CC2=C(C)/C(=C/c3ccc([S+](C)[O-])cc3)c3ccc(F)cc32)c1OC` (stereo not drawn) [Compound 14, N′-(2,3-dimethoxybenzylidene)-2-((1Z)-1-(4-(methylsulfinyl)benzylidene)-5-fluoro-2-methyl-1H-inden-3-yl)acetohydrazide], the melting point is 203 to 205 °C. The “Scavenging Effect” value in data set [1] was found to be 62.93 ± 6.72%.

In turn, `COc1ccc(/C=N\NC(=O)CC2=C(C)/C(=C/c3ccc([S+](C)[O-])cc3)c3ccc(F)cc32)c(OC)c1OC` (stereo not drawn) [Compound 17, N′-(2,3,4-timethoxybenzylidene)-2-((1Z)-1-(4-(methylsulfinyl)benzylidene)-5-fluoro-2-methyl-1H-inden-3-yl)acetohydrazide] returned a melting point of 185 to 187 °C. In data set [1], the “Scavenging Effect” value came out at 63.56 ± 0.47%.

For the molecule `CCOc1cc(/C=N\NC(=O)CC2=C(C)/C(=C/c3ccc([S+](C)[O-])cc3)c3ccc(F)cc32)ccc1O` (stereo not drawn) [Compound 20, N′-(3-ethoxy-4-hydroxybenzylidene)-2-((1Z)-1-(4-(methylsulfinyl)benzylidene)-5-fluoro-2-methyl-1H-inden-3-yl)acetohydrazide], the melting point is 193 to 195 °C. Also, the “Scavenging Effect” value in data set [1] was 35.50 ± 9.05%.

As for `CC1=C(CC(=O)N/N=C\c2cccc(O)c2O)c2cc(F)ccc2/C1=C\c1ccc([S+](C)[O-])cc1` (stereo not drawn) [Compound 23, N′-(2,3-dihydroxybenzylidene)-2-((1Z)-1-(4-(methylsulfinyl)benzylidene)-5-fluoro-2-methyl-1H-inden-3-yl)acetohydrazide], in data set [1], the “Scavenging Effect” value is recorded as 33.10 ± 8.41%.

Regarding `COc1ccc(/C=N\NC(=O)CC2=C(C)/C(=C/c3ccc([S+](C)[O-])cc3)c3ccc(F)cc32)cc1OC` (stereo not drawn) [Compound 15, N′-(3,4-dimethoxybenzylidene)-2-((1Z)-1-(4-(methylsulfinyl)benzylidene)-5-fluoro-2-methyl-1H-inden-3-yl)acetohydrazide], the melting point fell in the range of 230 to 232 °C. Besides, the “Scavenging Effect” value in data set [1] is given as 40.60 ± 14.40%.

Molecule `COc1cc(/C=N\NC(=O)CC2=C(C)/C(=C/c3ccc([S+](C)[O-])cc3)c3ccc(F)cc32)cc(OC)c1OC` (stereo not drawn) [Compound 10, N′-(3,4,5-trimethoxybenzylidene)-2-((1Z)-1-(4-(methylsulfinyl)benzylidene)-5-fluoro-2-methyl-1H-inden-3-yl)acetohydrazide] had a melting point of 165 to 167 °C. The “Scavenging Effect” value in data set [1] amounted to 42.33 ± 18.38%.

Consider `COc1cc(OC)c(OC)cc1/C=N\NC(=O)CC1=C(C)/C(=C/c2ccc([S+](C)[O-])cc2)c2ccc(F)cc21` (stereo not drawn) [Compound 9], for which the melting point was in the range of 233 to 235 °C. Moreover, in data set [1], the “Scavenging Effect” value is listed as 78.97 ± 9.36%.

As to `Cc1cc(C(C)(C)C)c(O)c(C(C)(C)C)c1` [BHT, Butylated hydroxytoluene, reference compound], in data set [1], the “Scavenging Effect” value was determined as 90.6 ± 3.83%.

Regarding `CC1=C(CC(=O)N/N=C\c2cccc([N+](=O)[O-])c2)c2cc(F)ccc2/C1=C\c1ccc([S+](C)[O-])cc1` (stereo not drawn) [Compound 7], the melting point was 165 to 167 °C. Moreover, the “Scavenging Effect” value in data set [1] amounted to 49.36 ± 5.57%.

As to `CC1=C(CC(=O)N/N=C\c2ccccc2)c2cc(F)ccc2/C1=C\c1ccc([S+](C)[O-])cc1` (stereo not drawn) [Compound 3], the melting point was 138 to 140 °C. In addition, the “Scavenging Effect” value in data set [1] was 67.40 ± 9.25%.

`COc1cccc(/C=N\NC(=O)CC2=C(C)/C(=C/c3ccc([S+](C)[O-])cc3)c3ccc(F)cc32)c1O` (stereo not drawn) [Compound 24] showed a melting point of 210 to 212 °C. Also, in data set [1], the “Scavenging Effect” value was found to be 27.66 ± 2.12%.

As to `CC1=C(CC(=O)N/N=C\c2ccccc2[N+](=O)[O-])c2cc(F)ccc2/C1=C\c1ccc([S+](C)[O-])cc1` (stereo not drawn) [Compound 1, N′-(2-nitrobenzylidene)-2-((1Z)-1-(4-(methylsulfinyl)benzylidene)-5-fluoro-2-methyl-1H-inden-3-yl)acetohydrazide], the melting point was in the range of 148 to 150 °C. In data set [1], the “Scavenging Effect” value was 18.53 ± 4.86%.

Consider `CC1=C(CC(=O)N/N=C\c2ccc(Cl)cc2)c2cc(F)ccc2/C1=C\c1ccc([S+](C)[O-])cc1` (stereo not drawn) [Compound 4, N′-(4-chlorobenzylidene)-2-((1Z)-1-(4-(methylsulfinyl)benzylidene)-5-fluoro-2-methyl-1H-inden-3-yl)acetohydrazide], for which the melting point lay within 228 to 230 °C. Besides, the “Scavenging Effect” value in data set [1] amounted to 39.86 ± 10.80%.

`CCOc1ccc(/C=N\NC(=O)CC2=C(C)/C(=C/c3ccc([S+](C)[O-])cc3)c3ccc(F)cc32)cc1OC` (stereo not drawn) [Compound 18, N′-(3-methoxy-4-ethoxybenzylidene)-2-((1Z)-1-(4-(methylsulfinyl)benzylidene)-5-fluoro-2-methyl-1H-inden-3-yl)acetohydrazide] displayed a melting point of 158 to 160 °C.

`COc1ccc(/C=N\NC(=O)CC2=C(C)/C(=C/c3ccc([S+](C)[O-])cc3)c3ccc(F)cc32)cc1O` (stereo not drawn) [Compound 22, N′-(3-hydroxy-4-methoxybenzylidene)-2-((1Z)-1-(4-(methylsulfinyl)benzylidene)-5-fluoro-2-methyl-1H-inden-3-yl)acetohydrazide]: the melting point lay within 208 to 210 °C. In data set [1], the “Scavenging Effect” value was 51.40 ± 16.66%.

In turn, `COc1cc(OC)c(/C=N\NC(=O)CC2=C(C)/C(=C/c3ccc([S+](C)[O-])cc3)c3ccc(F)cc32)c(OC)c1` (stereo not drawn) [Compound 16, N′-(2,4,6-timethoxybenzylidene)-2-((1Z)-1-(4-(methylsulfinyl)benzylidene)-5-fluoro-2-methyl-1H-inden-3-yl)acetohydrazide] yielded a melting point of 193 to 195 °C. Also, in data set [1], the “Scavenging Effect” value stood at 30.80 ± 2.50%.

Usually melting point stands for the temperature, or range, at which the solid turns liquid.
